{"source": "paper PMC11861906", "about": "“Structural basis for lipid-mediated activation of G protein-coupled receptor GPR55” (Nature Communications, 2025)", "assay_type_in_all_cases": "cell-based", "key": {"[1]": {"target": "wt GPR55 (Gα13 mutant H368Q) (Homo sapiens, UniProt Q9Y2T6)", "sequence (Q9Y2T6 whole entry, stated change not applied)": "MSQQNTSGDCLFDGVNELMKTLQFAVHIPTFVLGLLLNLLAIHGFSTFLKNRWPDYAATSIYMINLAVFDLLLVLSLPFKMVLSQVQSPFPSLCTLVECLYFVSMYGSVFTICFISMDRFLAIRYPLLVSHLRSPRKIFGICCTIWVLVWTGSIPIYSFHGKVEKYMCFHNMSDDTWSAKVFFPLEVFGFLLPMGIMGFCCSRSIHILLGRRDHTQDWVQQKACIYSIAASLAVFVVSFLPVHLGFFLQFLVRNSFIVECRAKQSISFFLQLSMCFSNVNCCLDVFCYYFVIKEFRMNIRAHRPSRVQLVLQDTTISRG", "sequence (Q14344 with tags, fused parts or gaps H368Q partner)": "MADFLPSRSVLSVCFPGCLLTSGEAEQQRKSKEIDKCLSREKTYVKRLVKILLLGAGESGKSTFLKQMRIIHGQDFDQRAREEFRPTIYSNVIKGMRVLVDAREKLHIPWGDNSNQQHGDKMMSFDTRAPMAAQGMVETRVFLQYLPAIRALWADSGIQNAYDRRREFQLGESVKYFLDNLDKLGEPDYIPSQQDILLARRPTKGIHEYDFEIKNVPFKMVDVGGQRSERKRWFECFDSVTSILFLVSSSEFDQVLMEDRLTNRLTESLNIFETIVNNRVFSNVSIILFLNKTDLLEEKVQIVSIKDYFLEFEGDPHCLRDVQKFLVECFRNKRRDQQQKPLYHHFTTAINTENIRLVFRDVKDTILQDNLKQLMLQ", "sequence (P16520 whole entry partner)": "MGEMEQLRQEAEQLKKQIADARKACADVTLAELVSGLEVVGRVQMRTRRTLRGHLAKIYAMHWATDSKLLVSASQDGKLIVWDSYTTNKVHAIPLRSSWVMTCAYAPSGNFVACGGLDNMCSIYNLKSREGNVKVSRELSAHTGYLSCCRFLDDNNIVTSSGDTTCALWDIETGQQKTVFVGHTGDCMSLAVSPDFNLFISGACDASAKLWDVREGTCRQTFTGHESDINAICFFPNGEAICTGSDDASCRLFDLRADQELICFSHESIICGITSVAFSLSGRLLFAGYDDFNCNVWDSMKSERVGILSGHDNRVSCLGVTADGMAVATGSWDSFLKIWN", "sequence (O14610 1-66 partner limits assumed)": "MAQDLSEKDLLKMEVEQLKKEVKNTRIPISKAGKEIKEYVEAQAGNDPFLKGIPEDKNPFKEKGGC", "assay": "BRET² G protein dissociation assay, wt GPR55 with Gα13-H368Q", "settings": "for BRET2 response, Mean (plotted, Fig. S4): GPR55-wt-G13-H368Q", "description": "(§1) Next, we used a mutagenesis approach to further explore the Gα13 selectivity of GPR55. The striking difference in the sequence between the two G protein subtypes guided the design of four Gα13 mutants that are in close contact with GPR55 by replacing the residues with the respective Gα12 amino acid (L374^-4I, Q373^-5D, H368^-10Q, R331D). The mutants were tested individually for their ability to be activated by GPR55 using the same G protein dissociation assay. […] The single Gα13-mutants affected the potency of LPI and ML184 only to a minor extend compared to wt Gα13 (Supplementary Table S3).\n(§2) G protein dissociation assays were performed according to the original protocols of the TRUPATH BRET² assay[47],[87] but with subtle modifications as previously described[61],[88],[89]. All reagents and cells were obtained from Thermo Fisher Scientific unless indicated otherwise. The coding sequences for the G protein biosensors[47] (Gα12-Rluc8, Gα13-Rluc8, wt Gβ3, and Gγ9-GFP), the wt GPR55, the construct used for cryo-EM (with GFP bearing a G67A mutation to disrupt fluorescence properties[48] for BRET² assays), GPR55 binding pocket mutants (G152^4.56F, G152^4.56W, N171^ECL2Q, N171^ECL2A, T176^5.33A, R253^6.62A), and the wt TBXA2R were codon-optimized for Homo sapiens, gene-synthesized, and sub-cloned into pcDNA^TM3.1(+) between NheI and HindIII restriction sites by GeneArt (Thermo Fisher Scientific). […] Freshly grown cells were washed with Dulbecco’s Balanced Salt Solution (DPBS, cat. #14200075) and detached using trypsin-ethylenediaminetetraacetic acid (trypsin-EDTA) (cat. #25300-062). Then, the cells were reconstituted to 500,000 cells per mL with fresh medium, and 1,000,000 cells were seeded into each well of a 6-well plate. After 3 h incubation at 37 °C and 5% CO2, adherent cells were transfected with 600 ng DNA (1:1:1:1 ratio of plasmid DNA for GPR55, wt Gβ3, Gγ9-GFP, and Gα12-Rluc8 or Gα13-Rluc8). Plasmid DNA was mixed with 1.5 µL Lipofectamine^TM 2000 (cat. #11668027) in Opti-MEM^TM medium (cat. #31985062) and incubated for 20 min. Then, the mixture was added to each well of the 6-well plate following 24 h incubation at 37 °C and 5% CO2. Transfected cells were washed with DPBS, detached using EDTA (Versene, cat. #15040066), and reconstituted into fresh medium at 500,000 cells mL^−1. From this suspension, 50,000 cells were seeded into each well of a white-bottom 96-well plate (Nunc^TM MicroWell^TM 96 wells, cat. #136101) following overnight incubation at 37 °C and 5% CO2. Then, the adherent cells were washed with assay medium [Hank’s balanced salt solution (HBSS, cat. #14065056) plus 20 mM HEPES pH 7.4 (cat. #15630056)] and finally reconstituted into 50 µL of the same medium. […] Methoxy e-Coelenterazine was used as luciferase substrate (Prolume Purple, NanoLight Technology, cat. #369), reconstituted at 1 mM in methanol and diluted to 37.5 µM with assay buffer (7.5 µM final assay concentration). The assay was started by the addition of 20 µL luciferase substrate to each well of the assay plate using a Multidrop^TM Combi reagent dispenser (Thermo Fisher Scientific), followed by 5 min incubation at room temperature. Then, 30 µL of agonist dilutions or DMSO control was added (final DMSO concentration 1.5%), followed by an additional 5 min incubation at room temperature. BRET² measurements were performed with a PHERAstar® FSX microplate reader (BMG LABTECH) using a BRET² filter (donor emission 370–450 nm, acceptor emission 500–530 nm) at the maximum fluorescence gain of 3600. BRET² ratios were calculated by dividing GFP emission signals from Rluc8 emission counts."}, "[2]": {"target": "wt GPR55 (Gα13 mutant R331D) (Homo sapiens, UniProt Q9Y2T6)", "sequence (Q9Y2T6 whole entry, stated change not applied)": "as the sequence (Q9Y2T6 whole entry, stated change not applied) above", "sequence (Q14344 whole entry R331D partner)": "as the sequence (Q14344 with tags, fused parts or gaps H368Q partner) above, with R331D, Q368H counted along it", "sequence (P16520 whole entry partner)": "as the sequence (P16520 whole entry partner) above", "sequence (O14610 1-66 partner limits assumed)": "as the sequence (O14610 1-66 partner limits assumed) above", "assay": "BRET² G protein dissociation assay, wt GPR55 with Gα13-R331D", "settings": "for BRET2 response, Mean (plotted, Fig. S4): GPR55-wt-G13-R331D", "description": "as §1, §2"}, "[3]": {"target": "wt GPR55 (Gα13 mutant L374I) (Homo sapiens, UniProt Q9Y2T6)", "sequence (Q9Y2T6 whole entry, stated change not applied)": "as the sequence (Q9Y2T6 whole entry, stated change not applied) above", "sequence (Q14344 with tags, fused parts or gaps L374I partner)": "as the sequence (Q14344 with tags, fused parts or gaps H368Q partner) above, with Q368H, L374I counted along it", "sequence (P16520 whole entry partner)": "as the sequence (P16520 whole entry partner) above", "sequence (O14610 1-66 partner limits assumed)": "as the sequence (O14610 1-66 partner limits assumed) above", "assay": "BRET² G protein dissociation assay, wt GPR55 with Gα13-L374I", "settings": "for BRET2 response, Mean (plotted, Fig. S4): GPR55-wt-G13-L374I", "description": "as §1, §2"}, "[4]": {"target": "wt GPR55 (Gα13 mutant Q373D) (Homo sapiens, UniProt Q9Y2T6)", "sequence (Q9Y2T6 whole entry, stated change not applied)": "as the sequence (Q9Y2T6 whole entry, stated change not applied) above", "sequence (Q14344 with tags, fused parts or gaps Q373D partner)": "as the sequence (Q14344 with tags, fused parts or gaps H368Q partner) above, with Q368H, Q373D counted along it", "sequence (P16520 whole entry partner)": "as the sequence (P16520 whole entry partner) above", "sequence (O14610 1-66 partner limits assumed)": "as the sequence (O14610 1-66 partner limits assumed) above", "assay": "BRET² G protein dissociation assay, wt GPR55 with Gα13-Q373D", "settings": "for BRET2 response, Mean (plotted, Fig. S4): GPR55-wt-G13-Q373D", "description": "as §1, §2"}}}
{"smiles": "Cc1cccc(N2CCN(C(=O)c3cc(S(=O)(=O)N(C)C)ccc3N3CCCC3)CC2)c1C", "note": "[ML184, 3-[[4-(2,3-dimethylphenyl)-1-piperazinyl]carbonyl]-N,N-dimethyl-4-(1-pyrrolidinyl)benzenesulfonamide]", "values": [{"measurement": "BRET2 response, Mean (plotted, Fig. S4)", "setting": "[1]; concentration 300 pM", "value": -0.005683}, {"measurement": "BRET2 response, Mean (plotted, Fig. S4)", "setting": "[1]; concentration 1e-9 M", "value": -0.005417}, {"measurement": "BRET2 response, Mean (plotted, Fig. S4)", "setting": "[1]; concentration 3e-9 M", "value": -0.01235}, {"measurement": "BRET2 response, Mean (plotted, Fig. S4)", "setting": "[1]; concentration 1e-8 M", "value": -0.02205}, {"measurement": "BRET2 response, Mean (plotted, Fig. S4)", "setting": "[1]; concentration 3e-8 M", "value": -0.02877}, {"measurement": "BRET2 response, Mean (plotted, Fig. S4)", "setting": "[1]; concentration 1e-7 M", "value": -0.03593}, {"measurement": "BRET2 response, Mean (plotted, Fig. S4)", "setting": "[1]; concentration 3e-7 M", "value": -0.04192}, {"measurement": "BRET2 response, Mean (plotted, Fig. S4)", "setting": "[1]; concentration 1e-6 M", "value": -0.04487}, {"measurement": "BRET2 response, Mean (plotted, Fig. S4)", "setting": "[1]; concentration 3e-6 M", "value": -0.0483}, {"measurement": "BRET2 response, Mean (plotted, Fig. S4)", "setting": "[1]; concentration 1e-5 M", "value": -0.05252}, {"measurement": "BRET2 response, Mean (plotted, Fig. S4)", "setting": "[1]; concentration 3e-5 M", "value": -0.05477}, {"measurement": "EC50", "setting": "[1]; wt GPR55, Gα13-H368Q", "value": 29.5, "unit": "nM"}, {"measurement": "Emax at 30 µM", "setting": "[1]; wt GPR55, Gα13-H368Q, 30 µM ligand, same normalization, read-out: Efficacy ± SEM (%)", "value": "101 ± 4", "unit": "%"}, {"measurement": "BRET2 response, Mean (plotted, Fig. S4)", "setting": "[2]; concentration 300 pM", "value": -0.00035}, {"measurement": "BRET2 response, Mean (plotted, Fig. S4)", "setting": "[2]; concentration 1e-9 M", "value": -0.0002667}, {"measurement": "BRET2 response, Mean (plotted, Fig. S4)", "setting": "[2]; concentration 3e-9 M", "value": -0.009133}, {"measurement": "BRET2 response, Mean (plotted, Fig. S4)", "setting": "[2]; concentration 1e-8 M", "value": -0.02147}, {"measurement": "BRET2 response, Mean (plotted, Fig. S4)", "setting": "[2]; concentration 3e-8 M", "value": -0.04232}, {"measurement": "BRET2 response, Mean (plotted, Fig. S4)", "setting": "[2]; concentration 1e-7 M", "value": -0.06272}, {"measurement": "BRET2 response, Mean (plotted, Fig. S4)", "setting": "[2]; concentration 3e-7 M", "value": -0.07305}, {"measurement": "BRET2 response, Mean (plotted, Fig. S4)", "setting": "[2]; concentration 1e-6 M", "value": -0.07957}, {"measurement": "BRET2 response, Mean (plotted, Fig. S4)", "setting": "[2]; concentration 3e-6 M", "value": -0.0831}, {"measurement": "BRET2 response, Mean (plotted, Fig. S4)", "setting": "[2]; concentration 1e-5 M", "value": -0.08698}, {"measurement": "BRET2 response, Mean (plotted, Fig. S4)", "setting": "[2]; concentration 3e-5 M", "value": -0.08977}, {"measurement": "EC50", "setting": "[2]; wt GPR55, Gα13-R331D", "value": 33.9, "unit": "nM"}, {"measurement": "Emax at 30 µM", "setting": "[2]; wt GPR55, Gα13-R331D, 30 µM ligand, same normalization, read-out: Efficacy ± SEM (%)", "value": "89 ± 3", "unit": "%"}, {"measurement": "BRET2 response, Mean (plotted, Fig. S4)", "setting": "[3]; concentration 300 pM", "value": -0.00585}, {"measurement": "BRET2 response, Mean (plotted, Fig. S4)", "setting": "[3]; concentration 1e-9 M", "value": -0.001933}, {"measurement": "BRET2 response, Mean (plotted, Fig. S4)", "setting": "[3]; concentration 3e-9 M", "value": -0.00955}, {"measurement": "BRET2 response, Mean (plotted, Fig. S4)", "setting": "[3]; concentration 1e-8 M", "value": -0.02387}, {"measurement": "BRET2 response, Mean (plotted, Fig. S4)", "setting": "[3]; concentration 3e-8 M", "value": -0.04258}, {"measurement": "BRET2 response, Mean (plotted, Fig. S4)", "setting": "[3]; concentration 1e-7 M", "value": -0.06613}, {"measurement": "BRET2 response, Mean (plotted, Fig. S4)", "setting": "[3]; concentration 3e-7 M", "value": -0.07745}, {"measurement": "BRET2 response, Mean (plotted, Fig. S4)", "setting": "[3]; concentration 1e-6 M", "value": -0.0833}, {"measurement": "BRET2 response, Mean (plotted, Fig. S4)", "setting": "[3]; concentration 3e-6 M", "value": -0.08843}, {"measurement": "BRET2 response, Mean (plotted, Fig. S4)", "setting": "[3]; concentration 1e-5 M", "value": -0.09448}, {"measurement": "BRET2 response, Mean (plotted, Fig. S4)", "setting": "[3]; concentration 3e-5 M", "value": -0.09637}, {"measurement": "EC50", "setting": "[3]; wt GPR55, Gα13-L374I", "value": 36.3, "unit": "nM"}, {"measurement": "Emax at 30 µM", "setting": "[3]; wt GPR55, Gα13-L374I, 30 µM ligand, same normalization, read-out: Efficacy ± SEM (%)", "value": "84 ± 1", "unit": "%"}, {"measurement": "BRET2 response, Mean (plotted, Fig. S4)", "setting": "[4]; concentration 300 pM", "value": -0.0016}, {"measurement": "BRET2 response, Mean (plotted, Fig. S4)", "setting": "[4]; concentration 1e-9 M", "value": -0.008467}, {"measurement": "BRET2 response, Mean (plotted, Fig. S4)", "setting": "[4]; concentration 3e-9 M", "value": -0.01797}, {"measurement": "BRET2 response, Mean (plotted, Fig. S4)", "setting": "[4]; concentration 1e-8 M", "value": -0.03595}, {"measurement": "BRET2 response, Mean (plotted, Fig. S4)", "setting": "[4]; concentration 3e-8 M", "value": -0.05377}, {"measurement": "BRET2 response, Mean (plotted, Fig. S4)", "setting": "[4]; concentration 1e-7 M", "value": -0.06678}, {"measurement": "BRET2 response, Mean (plotted, Fig. S4)", "setting": "[4]; concentration 3e-7 M", "value": -0.07328}, {"measurement": "BRET2 response, Mean (plotted, Fig. S4)", "setting": "[4]; concentration 1e-6 M", "value": -0.07808}, {"measurement": "BRET2 response, Mean (plotted, Fig. S4)", "setting": "[4]; concentration 3e-6 M", "value": -0.08238}, {"measurement": "BRET2 response, Mean (plotted, Fig. S4)", "setting": "[4]; concentration 1e-5 M", "value": -0.08622}, {"measurement": "BRET2 response, Mean (plotted, Fig. S4)", "setting": "[4]; concentration 3e-5 M", "value": -0.08798}, {"measurement": "EC50", "setting": "[4]; wt GPR55, Gα13-Q373D", "value": 17, "unit": "nM"}, {"measurement": "Emax at 30 µM", "setting": "[4]; wt GPR55, Gα13-Q373D, 30 µM ligand, same normalization, read-out: Efficacy ± SEM (%)", "value": "94 ± 7", "unit": "%"}]}
